Here are results for three molecules from the NIST ThermoML archive (doi:10.1016/j.fluid.2013.08.005).

A short description of series [1]: molar heat capacity at constant pressure. The settings on record: 101 kPa, Liquid, Large sample (1 g) DSC.
A short description of series [2]: molar heat capacity at constant pressure; mn = molality of the nth substance listed, in mol/kg. The settings on record: 101 kPa, Liquid, Large sample (1 g) DSC, m2 = 0.
The nature of series [3]: mn = molality of the nth substance listed, in mol/kg. The settings on record: 298.15 K; 101 kPa; Liquid; Alternating current cell with electrodes; m2 = 0.

Several values for one entry are separate records, joined by “and”; a condition that tells them apart may be missing. Identical values can stand only once. Numbers after ± are expanded uncertainties.

Regarding `O` [water], the “molar heat capacity at constant pressure” value in series [1] (298.15 K) was 75.37 ± 1.3 J/K/mol and 75.35 ± 1.3 J/K/mol; in series [1] (303.15 K), 75.34 ± 1.3 J/K/mol and 75.32 ± 1.3 J/K/mol; in series [1] (308.15 K), 75.33 ± 1.3 J/K/mol and 75.32 ± 1.3 J/K/mol; in series [1] (313.15 K) it was 75.34 ± 1.3 J/K/mol and 75.33 ± 1.3 J/K/mol.
As for `O` [water] + CCCCCCCC[N+](C)(C)C.[Br-], the “molar heat capacity at constant pressure” value was determined as 75.35 ± 1.3 J/K/mol in series [2] (298.15 K), 75.32 ± 1.3 J/K/mol in series [2] (303.15 K), 75.32 ± 1.3 J/K/mol in series [2] (308.15 K) and 75.33 ± 1.3 J/K/mol in series [2] (313.15 K).
With `O` [water] + CCCCCC[N+](C)(C)C.[Br-], the electrical conductivity in series [3] came out at 0.239 ± 0.0095 S/m. Also, the “molar heat capacity at constant pressure” value was 75.37 ± 1.3 J/K/mol in series [2] (298.15 K), 75.34 ± 1.3 J/K/mol in series [2] (303.15 K), 75.33 ± 1.3 J/K/mol in series [2] (308.15 K) and 75.34 ± 1.3 J/K/mol in series [2] (313.15 K).
